We go through 21 compounds from patent US11434246B2, “EP4 antagonists” (Eisai R&D Management Co., Ltd., priority 2015, dated 2022).

Usually IC50 stands for the concentration that gives 50% inhibition.

EP4, sequence (P35408 whole entry): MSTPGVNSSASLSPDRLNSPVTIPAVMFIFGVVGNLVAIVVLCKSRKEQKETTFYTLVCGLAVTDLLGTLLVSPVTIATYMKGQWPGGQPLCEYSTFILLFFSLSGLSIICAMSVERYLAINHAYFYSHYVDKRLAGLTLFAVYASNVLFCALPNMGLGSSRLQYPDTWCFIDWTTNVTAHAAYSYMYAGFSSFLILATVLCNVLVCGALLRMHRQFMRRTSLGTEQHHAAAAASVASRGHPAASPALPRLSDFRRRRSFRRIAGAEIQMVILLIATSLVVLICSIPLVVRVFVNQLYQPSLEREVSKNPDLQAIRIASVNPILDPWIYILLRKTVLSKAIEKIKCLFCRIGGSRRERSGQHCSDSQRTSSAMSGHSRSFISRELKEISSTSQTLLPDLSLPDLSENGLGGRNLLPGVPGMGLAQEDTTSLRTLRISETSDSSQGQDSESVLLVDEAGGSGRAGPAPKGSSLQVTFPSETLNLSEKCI

The assay concerns the target EP4 (Homo sapiens, UniProt P35408). Kind of assay: EP4 Antagonism by CRE-PLAP Reporter Assay (SE302 cells, PGE2-stimulated). Format: cell-based. Set-up: HEK293 cells express endogenous EP4; endogenous in cells; host or cells: SE302 (HEK293 clone with CRE-PLAP reporter). The following applies: SE302 (HEK293) cells, 3 ng/mL PGE2, overnight; single or multiple assay average values. The text has this:
PGE2 and [^3H]-labelled PGE2 were purchased from Cayman Chemical (Ann Arbor, Mich.) and Perkin Elmer (Waltham, Mass.), respectively. Mouse breast 4T1 cells (CRL-2539) were obtained from American Tissue Culture Collection. SE302 cell line is a clone of the HEK293 cells containing cAMP response element (CRE) promoter that when activated drives secretion of placental-like alkaline phosphatase (PLAP). HEK293 cells express endogenous EP4 and show induction of PLAP in response to PGE2 and EP4 agonists, but not EP1, 2 or 3 agonists (Chen Q, Muramoto K, Masaaki N, Ding Y, Yang H, Mackey M, Li W, Inoue Y, Ackermann K, Shrota H, Matsumoto I, Spyvee M, Schiller S, Sumida T, Gusovsky F, and Lamphier M. A novel antagonist of the prostaglandin E2 EP4 receptor inhibits Th1 differentiation and Th17 expansion and is orally active in arthritis models. British J Pharmacol, 2010, 160: 292-310). BalB/C female mice at 7-8 week age were purchased from Jackson Laboratory (Bar Harbor, Me.). Mice were maintained under specific pathogen-free conditions.
EP4 Antagonism by CRE-PLAP Reporter Assay: SE302 cells were maintained in DMEM/F12 (50:50) (MediaTech) supplemented with 10% FBS (Tissue Culture Biologicals) plus penicillin/streptomycin. When used for assays, cells were plated in a 96-well plate at 2×10^4 cells/100 μL/well in serum-free assay medium (DMEM/F12 supplemented with 0.1% BSA plus penicillin/streptomycin) and incubated for 4-6 h. Cells were then stimulated with 3 ng/mL of PGE2 in the presence or absence of various concentrations of test compound overnight, and PLAP activity was measured by mixing 15 μL of culture supernatants with 75 μL of Lumi-phos (Lumigen, Inc.) and 60 μL of assay buffer containing 8 mmol/L MgSO4 in 0.1 mol/L carbonate-bicarbonate buffer pH11 in a new 96-well black plate and incubated for 2 h at room temperature. The intensity of luminescence, which reflected the PLAP activity in the supernatant, was quantified with an Envision 2101 Multilabel Reader. Values obtained from DMSO treated samples in the presence of PGE2 were defined as 100% of control, whereas values obtained from DMSO treated samples in the absence of PGE2 were defined as 0% of control. % of control for compound treated samples was calculated as follows: (actual reading−0% of control)/(100% of control−0% of control)×100. IC50 value for each individual experiment was calculated using GraphPad Prism 6.02 (Lake Forest, Calif.) with % of control values.
Compounds of the present invention were assayed according to the methods as described above, and IC50 values, which may be single assay values or multiple assay average values, are summarized in Table 1. Compounds marked “ABS” show absolute stereochemistry.
For orientation: A reporter such as luciferase makes a cellular process visible.
With `C[C@H](NC(=O)c1c(C(F)(F)F)nn2c1N(Cc1cccc(C(F)(F)F)c1)CC2)c1ccc(C(=O)O)cn1` [Compound 39, (S)-6-(1-(6-(trifluoromethyl)-1-(3-(trifluoromethyl)benzyl)-2,3-dihydro-1H-imidazo[1,2-b]pyrazole-7-carboxamido)ethyl)nicotinic Acid], the IC50 turned out to be 4.73 nM.

The compound `C[C@H](NC(=O)c1c(C(F)(F)F)nn2c1N(Cc1ccc(C(F)(F)F)cc1)CC2)c1ccc(C(=O)O)cc1` [Compound 3, (S)-4-(1-(6-(trifluoromethyl)-1-(4-(trifluoromethyl)benzyl)-2,3-dihydro-1H-imidazo[1,2-b]pyrazole-7-carboxamido)ethyl)benzoic acid] showed an IC50 of 3.19 nM.

`C[C@H](NC(=O)c1c(C(F)(F)F)nn2c1N(Cc1ccc(CCCF)c(C(F)(F)F)c1)CC2)c1ccc(C(=O)O)cc1` [Compound 98, (S)-4-(1-(1-(4-(3-Fluoropropyl)-3-(trifluoromethyl)benzyl)-6-(trifluoromethyl)-2,3-dihydro-1H-imidazo[1,2-b]pyrazole-7-carboxamido)ethyl)benzoic Acid] gave an IC50 of 17.7 nM.

For the compound `C[C@H](NC(=O)c1c(C(F)(F)F)nn2c1N(Cc1ccccc1Cl)CC2)c1ccc(C(=O)O)cc1` [Compound 43, (S)-4-(1-(1-(2-chlorobenzyl)-6-(trifluoromethyl)-2,3-dihydro-1H-imidazo[1,2-b]pyrazole-7-carboxamido)ethyl)benzoic Acid], half-maximal inhibition (IC50) required 4.17 nM.

On to `C[C@H](NC(=O)c1c(C(F)(F)F)nn2c1N(Cc1cccc(I)c1)CC2)c1ccc(C(=O)O)cc1` [Compound 69, (S)-4-(1-(1-(3-iodobenzyl)-6-(trifluoromethyl)-2,3-dihydro-1H-imidazo[1,2-b]pyrazole-7-carboxamido)ethyl)benzoic acid], for which the IC50 was 0.7 nM.

Regarding `C[C@H](NC(=O)c1c(C(F)(F)F)nn2c1N(Cc1cc(F)cc(C(F)(F)F)c1)CC2)c1ccc(C(=O)O)cc1` [Compound 84, (S)-4-(1-(1-(3-fluoro-5-(trifluoromethyl)benzyl)-6-(trifluoromethyl)-2,3-dihydro-1H-imidazo[1,2-b]pyrazole-7-carboxamido)ethyl)benzoic acid], the IC50 turned out to be 0.358 nM.

As for `C[C@H](NC(=O)c1c(C(F)(F)F)nn2c1N(Cc1cccc(C(F)(F)F)c1)CC2)c1ccc(C(=O)NS(=O)(=O)c2ccc(N)cc2)cc1` [Compound 72, (S)—N-(1-(4-(((4-aminophenyl)sulfonyl)carbamoyl)phenyl)ethyl)-6-(trifluoromethyl)-1-(3-(trifluoromethyl)benzyl)-2,3-dihydro-1H-imidazo[1,2-b]pyrazole-7-carboxamide], the IC50 stood at 51.2 nM.

As to `C[C@H](NC(=O)c1c(-c2ccccc2)nn2c1N(Cc1cccc(C(F)(F)F)c1)CC2)c1ccc(C(=O)O)cc1` [Compound 60, (S)-4-(1-(6-phenyl-1-(3-(trifluoromethyl)benzyl)-2,3-dihydro-1H-imidazo[1,2-b]pyrazole-7-carboxamido)ethyl)benzoic Acid], the IC50 worked out at 7.65 nM.

Compound `C[C@H](NC(=O)c1c(C(F)(F)F)nn2c1N(Cc1cccc(F)c1)CC2)c1ccc(C(=O)O)cc1` [Compound 15, (S)-4-(1-(1-(3-fluorobenzyl)-6-(trifluoromethyl)-2,3-dihydro-1H-imidazo[1,2-b]pyrazole-7-carboxamido)ethyl)benzoic Acid] showed an IC50 of 1.65 nM.

As to `COC(=O)c1ccc([C@H](C)NC(=O)c2c(C(F)(F)F)nn3c2N(C(=O)c2ccccc2F)CC3)cc1` [Compound 102], 39 nM corresponded to half-maximal inhibition (IC50).

Turning to `C[C@H](NC(=O)c1c(C(F)(F)F)nn2c1N(Cc1cccc(C(F)(F)F)c1)CC2)c1ccc(C(=O)O)c(F)c1` [Compound 25, (S)-2-fluoro-4-(1-(6-(trifluoromethyl)-1-(3-(trifluoromethyl)benzyl)-2,3-dihydro-1H-imidazo[1,2-b]pyrazole-7-carboxamido)ethyl)benzoic acid], half-maximal inhibition (IC50) required 1.1 nM.

Compound `C[C@H](NC(=O)c1c(C(F)(F)F)nn2c1N(Cc1cc(C(F)(F)F)cc(C(F)(F)F)c1)CC2)c1ccc(C(=O)O)cc1` [Compound 5, (S)-4-(1-(1-(3,5-bis(trifluoromethyl)benzyl)-6-(trifluoromethyl)-2,3-dihydro-1H-imidazo[1,2-b]pyrazole-7-carboxamido)ethyl)benzoic Acid] returned an IC50 of 45.9 nM.

On to `C[C@H](NC(=O)c1c(C(F)(F)F)nn2c1N(Cc1ccc(C(F)(F)F)cc1)CC2)c1ccc(CC(=O)O)cc1` [Compound 27, (S)-2-(4-(1-(6-(trifluoromethyl)-1-(4-(trifluoromethyl)benzyl)-2,3-dihydro-1H-imidazo[1,2-b]pyrazole-7-carboxamido)ethyl)phenyl)acetic Acid], for which the IC50 was 7.08 nM.

With `C[C@H](NC(=O)c1c(C(F)(F)F)nn2c1N(Cc1cccc(C(F)(F)F)c1)C[C@H]2CO)c1ccc(C(=O)O)cc1` [Compound 83, 4-((S)-1-((S)-3-(hydroxymethyl)-6-(trifluoromethyl)-1-(3-(trifluoromethyl)benzyl)-2,3-dihydro-1H-imidazo[1,2-b]pyrazole-7-carboxamido)ethyl)benzoic Acid], the IC50 was determined as 0.64 nM.

Turning to `C[C@H](NC(=O)c1c(C(F)(F)F)nn2c1N(Cc1cccc(Cl)c1)CCC2)c1ccc(C(=O)O)cc1` [Compound 42, (S)-4-(1-(4-(3-chlorobenzyl)-2-(trifluoromethyl)-4,5,6,7-tetrahydropyrazolo[1,5-a]pyrimidine-3-carboxamido)ethyl)benzoic Acid], the IC50 worked out at 13.6 nM.

On to `C[C@H](NC(=O)c1c(C(F)(F)F)nn2c1N(Cc1cccc(C(F)(F)F)c1)CC2)c1ccc(C(=O)NC2(C#N)CC2)cc1` [Compound 101, (S)—N-(1-(4-((1-Cyanocyclopropyl)carbamoyl)phenyl)ethyl)-6-(trifluoromethyl)-1-(3-(trifluoromethyl)benzyl)-2,3-dihydro-1H-imidazo[1,2-b]pyrazole-7-carboxamide], for which the IC50 is 32.9 nM.

In turn, `C[C@H](NC(=O)c1c(C(F)(F)F)nn2c1N(Cc1cc(Br)cc(C(F)(F)F)c1)CC2)c1ccc(C(=O)O)cc1` [Compound 85, (S)-4-(1-(1-(3-bromo-5-(trifluoromethyl)benzyl)-6-(trifluoromethyl)-2,3-dihydro-1H-imidazo[1,2-b]pyrazole-7-carboxamido)ethyl)benzoic Acid] registered an IC50 of 0.12 nM.

Turning to `C[C@H](NC(=O)c1c(C(F)(F)F)nn2c1N(Cc1cccc(CN3CCn4nc(C(F)(F)F)c(C(=O)N[C@@H](C)c5ccc(C(=O)O)cc5)c43)c1)CC2)c1ccc(C(=O)O)cc1` [Compound 66, 4,4′-((1S,1′S)-((1,1′-(1,3-phenylenebis(methylene))bis(6-(trifluoromethyl)-2,3-dihydro-1H-imidazo[1,2-b]pyrazole-1,7-diyl-7-carbonyl))bis(azanediyl))bis(ethane-1,1-diyl))dibenzoic Acid], the IC50 is 35.8 nM.

Take `Cc1ccccc1CN1CCn2nc(C(F)(F)F)c(C(=O)N[C@@H](C)c3ccc(C(=O)O)cc3)c21` [Compound 19, (S)-4-(1-(1-(2-methylbenzyl)-6-(trifluoromethyl)-2,3-dihydro-1H-imidazo[1,2-b]pyrazole-7-carboxamido)ethyl)benzoic Acid]: half-maximal inhibition (IC50) required 3.6 nM.

On to `C[C@H](NC(=O)c1c(C(F)(F)F)nn2c1N(Cc1cccc(C(F)(F)F)c1)C[C@H]2CF)c1ccc(C(=O)O)cc1` [Compound 81, 4-((S)-1-((S)-3-(fluoromethyl)-6-(trifluoromethyl)-1-(3-(trifluoromethyl)benzyl)-2,3-dihydro-1H-imidazo[1,2-b]pyrazole-7-carboxamido)ethyl)benzoic acid], for which the IC50 stood at 0.26 nM.

The compound `COC(=O)c1ccc([C@H](C)NC(=O)c2c(C(F)(F)F)nn3c2N(Cc2cccc(C(F)(F)F)c2)CC3)cc1F` [Compound 24, Methyl (S)-2-fluoro-4-(1-(6-(trifluoromethyl)-1-(3-(trifluoromethyl)benzyl)-2,3-dihydro-1H-imidazo[1,2-b]pyrazole-7-carboxamido)ethyl)benzoate] yielded an IC50 of 8.2 nM.
